Test results: patent EP0911330B1, “1-(4-Arylpiperazine-1-y1)-3-(2-oxopyrrolidin/piperidin-1-y1) propanes as therapeutic agents for hypertension, ischemia, cardiovascular and other adrenergic receptors related disorders” (Council of Scientific & Industrial Research, priority 1997, dated 1999)

Legend:
[1] = tested on: Langendorff perfused rat heart; assay: Antiischemic activity, Langendorff perfused rat heart, brief (16 min.) ischemic insult, compound given at reperfusion (Table 3); settings: 0.001 ug/ml at reperfusion
Protocol: Table 3: Compound administered at the time of reperfusion at a dose of 0.001 ug/ml on brief period (16 min.) of ischemic insult.
(§1) The rats were killed by decapitation, heart were rapidly excised and placed in ice-cold HEPES tyrode buffer. Then isolated hearts were perfused retrogradely through coronary arteries using the Langendorff technique. The perfusion buffer consisted (in mM) NaCl 137, KCl 5.4, CaCl2 1.8, MgCl2 1.0, glucose 11.2 and HEPES 3.0. The buffer (pH 7.4) was continuously gassed with oxygen and maintained at 37°C. Coronary flow rate was maintained at 10 ml/min. The heart contracted spontaneously.
(§2) The perfused heart was allowed to equilibrate for 30 min. before initiation of any insult protocol. The text compounds were given at the time of reperfusion. Some of the compounds were dissolved in ethanol. Final concentration of ethanol in the perfusion buffer was 0.0001% and had no effect of its own on the parameter used. • (a) For brief period of ischemic insult (Hideo et al.). Pathophysiology and pathogenesis of stunned myocardium. J. Clin. Invest., 79, 950-961, 1987). Ischemia was initiated by stopping the flow for 16 min. followed by 30 min. reperfusion period. The durations were decided on the initial pilot experiments leading to 50% recovery of function. • (b) For prolong period of ischemic insult (Becker, L.C. & Ambrosio, G. Myocardial consequences of reperfusion. Prog. Cardiovas. Dis., 30, 23-44, 1987). Ischemia was initiated by stopping the flow for […]. followed by 30 min. reperfusion.

[2] = tested on: cat; assay: Effect on blood pressure and adrenaline vasopressor response in anaesthetized cat, i.v. (Table 2); assay type: in vivo; settings: for inhibition at 2 µmol/kg / inhibition in vivo at 2 µmol/kg / inhibition at 10 µmol/kg / inhibition in vivo at 10 µmol/kg: Felis catus, iv; for inhibition at 2 µmol/kg / inhibition at 10 µmol/kg: read-out: Adrenaline vasopressure response % inhibition; for inhibition in vivo at 2 µmol/kg / inhibition in vivo at 10 µmol/kg: read-out: B.P. fall %
Protocol: • (a) Cats (2.6-4.0 kg) of either sex anaesthetized with pentobarbitone sodium (40 mg/kg i.v.) and showing basal mean arterial blood pressure below 150 mm (Hg) were categorised as normotensive and above 150 mm Hg as hypertensive. Arterial blood pressure (BP) was recorded from one of the carotid artery through a stathum P23 DC pressure transducer and 7P1 low level DC preamplifier on a Grass Model P7 Polygraph, Signals from 7P1 preamplifier were used to trigger 7P4 Tachograph preamplifier for recording the heart rate (HR). Right femoral vein and Trachea were cannulated for intravenous injections and artificial ventilation respectively. Control responses to intravenous injection of noradrenaline (2-4 ug); acetyl choline (1-2 ug); histamine ([…]) and isoprenaline (1-2 ug) were taken before and after the administration of test doses of each compounds.

[3] = tested on: cat; assay: Comparative antihypertensive effect with clinically used antihypertensive drugs in cat; assay type: in vivo; settings: 2 uMol/kg i.v.
[4] = tested on: Langendorff perfused rat heart preparation; assay: Cardioprotective activity, Langendorff perfused rat heart, prolonged ischemic insult, compound given at reperfusion; settings: 10^-6M, ischemic insult 45 min.
Protocol: Further, in Langendorff perfused rat heart preparation subjected to even upto 90 min. global ischemia, the compound at 0.001 ug/ml conc. given at the time of reperfusion revived normal rhythmic contraction started within 2 min. (Table 1) and incidence of reperfusion induced arrhythmia were abolished. Table 1: Compound administered at the time of reperfusion at the dose of 0.001 ug/ml on prolong period (90 min.) of ischemic insult.
as §1, §2

SMILES | Onset [1] [min] | Percentage recovery 15 min. [1] [Percentage] | Percentage recovery 30 min. [1] [Percentage] | inhibition at 2 µmol/kg ([2]; dose 2.0 umol/kg i.v.) [%] | inhibition in vivo at 2 µmol/kg ([2]; dose 2.0 umol/kg i.v.) [%] | inhibition at 10 µmol/kg ([2]; dose 10.0 umol/kg i.v.) [%] | inhibition in vivo at 10 µmol/kg ([2]; dose 10.0 umol/kg i.v.) [%] | Dur. ([2]; dose 2.0 umol/kg i.v.) | Dur. ([2]; dose 10.0 umol/kg i.v.) | B.P. fall [3] [%] | Dur. [3] [min] | Onset [4] [min]
O=C1CCCCN1CCCN1CCN(c2ccccn2)CC1 [2-Pyridyl, n=2, 1-[4-(2-pyridyl)piperazin-1-yl]-3-[2-oxopiperidin-1-yl] propane] | 2.0 | 47.60 | 71.40 | 28 | 34 | -20 to 0 | 42 | 53 min | >71 min |  |  | 
CCc1ccccc1N1CCN(CCCN2CCCC2=O)CC1 [C6H4-2-C2H5, n=1, 1-[4-(2-ethylphenyl)piperazin-1-yl]-3-[2-oxopyrrolidin-1-yl] propane] | 3.0 |  |  | -20 to 0 | 13 |  | 62 | 10 min | 10 min |  |  | 
O=C1CCCCN1CCCN1CCN(c2cccc(C(F)(F)F)c2)CC1 [C6H4-3-CF3, n=2, 1-[4-(3-trifluoromethylphenyl)piperazin-1-yl]-3-[2-oxopiperidin-1-yl]propane] |  |  |  | -20 to 0 |  | 25 | 10 |  | Tr |  |  | 
O=C1CCCN1CCCN1CCN(c2cccc(Cl)c2)CC1 [C6H4-3-Cl, n=1, 1-[4-(3-chlorophenyl)piperazin-1-yl]-3-[2-oxopyrrolidin-1-yl]propane] | 1.0 |  |  | -20 to 0 | 25 |  |  | 20 min | >57 min |  |  | 
O=C1CCCCN1CCCN1CCN(c2cccc(Cl)c2)CC1 [C6H4-3-Cl, n=2, 1-[4-(3-chlorophenyl)piperazin-1-yl]-3-[2-oxopiperidin-1-yl] propane] | 3.0 | 31.50 | 39.40 | 33 | 27 | 10 | 44 | 9 min | 62 min |  |  | 
O=C1CCCN1CCCN1CCN(c2cccc(F)c2)CC1 [C6H4-3-F, n=1, 1-[4-(3-fluorophenyl)piperazin-1-yl]-3-[2-oxopyrrolidin-1-yl]propane] | 2.0 |  |  | 80 | 18 | > 100 | 32 | 3 min | 30 min |  |  | 
CCc1ccc(N2CCN(CCCN3CCCC3=O)CC2)cc1 [C6H4-4-C2H5, n=1, 1-[4-(4-ethylphenyl)piperazin-1-yl]-3-[2-oxopyrrolidin-1-yl]propane] | 2.0 |  |  |  | 9 |  | 20 | Tr | 14 min |  |  | 
O=C1CCCN1CCCN1CCN(c2ccc(Cl)cc2)CC1 [C6H4-4-Cl, n=1, 1-[4-(4-chlorophenyl)piperazin-1-yl]-3-[2-oxopyrrolidin-1-yl]propane] | 1.0 |  |  |  |  |  |  |  |  |  |  | 
O=C1CCCCN1CCCN1CCN(c2ccc(Cl)cc2)CC1 [C6H4-4-Cl, n=2, 1-[4-(4-chlorophenyl)piperazin-1-yl]-3-[2-oxopiperidin-1-yl] propane] |  |  |  | 20 | 24 | 25 | 46 | 20 min | 25 min |  |  | 
O=C1CCCCN1CCCN1CCN(c2ccc(F)cc2)CC1 [C6H4-4-F, n=2, 1-[4-(4-fluorophenyl)piperazin-1-yl]-3-[2-oxopiperidin-1-yl] propane] |  |  |  | 46 | 23 | > 100 | 33 | 40 min | >84 min |  |  | 
C[C@H](CS)C(=O)N1CCC[C@H]1C(=O)O [Captopril, reference compound] |  |  |  |  |  |  |  |  |  | 14 | 28 | 
COC(=O)C1=C(C)NC(C)=C(C(=O)OC)C1c1ccccc1[N+](=O)[O-] [Nifedipine, reference compound] |  |  |  |  |  |  |  |  |  |  |  | 2.5
